Experimental findings from the NIST ThermoML archive (doi:10.1016/j.jct.2010.08.002) are described below.

Numbers after ± are expanded uncertainties.

For the data set the following is noted: for mass density: Liquid.

The term surface tension liquid-gas denotes the force per length acting along the surface. The term mass density denotes the mass of a sample divided by its volume. Turning to `COP(=O)([O-])OC.Cn1cc[n+](C)c1` [1,3-dimethylimidazolium dimethylphosphate], the surface tension liquid-gas came to 47.42 ± 1.6 mN/m (293.15 K); 47.09 ± 1.6 mN/m (298.15 K); 47.11 ± 1.6 mN/m (303.15 K); 46.28 ± 1.6 mN/m (308.15 K); 45.11 ± 1.6 mN/m (313.15 K); 44.44 ± 1.6 mN/m (318.15 K). For the same molecule, the surface tension liquid-gas came out at 43.01 ± 1.5 mN/m (323.15 K), 42.58 ± 1.5 mN/m (328.15 K), 41.88 ± 1.5 mN/m (333.15 K) and 41.33 ± 1.4 mN/m (338.15 K). For the same molecule, the mass density (293.15 K) is given as 1244 ± 5.7 kg/m3; the mass density (298.15 K) came out at 1242 ± 5.7 kg/m3; the mass density (303.15 K) is 1238.7 ± 5.6 kg/m3; the mass density (308.15 K) turned out to be 1234.9 ± 5.5 kg/m3; the mass density (313.15 K) amounted to 1229.7 ± 5.5 kg/m3; the mass density (318.15 K) is listed as 1226.8 ± 5.4 kg/m3. Besides, the mass density was determined as 1223.9 ± 5.4 kg/m3 (323.15 K), 1218.5 ± 5.3 kg/m3 (328.15 K), 1214.8 ± 5.2 kg/m3 (333.15 K) and 1210.4 ± 5.1 kg/m3 (338.15 K).

`CCOP(=O)([O-])OCC.CCn1cc[n+](C)c1` [1-ethyl-3-methylimidazolium diethyl phosphate]: the surface tension liquid-gas came out at 36.1 ± 1.3 mN/m (293.15 K); 35.88 ± 1.3 mN/m (298.15 K); 35.43 ± 1.3 mN/m (303.15 K); 35.3 ± 1.3 mN/m (308.15 K); 35.07 ± 1.3 mN/m (313.15 K); 34.61 ± 1.2 mN/m (318.15 K). For the same molecule, the surface tension liquid-gas (323.15 K) came to 34.55 ± 1.2 mN/m, the surface tension liquid-gas (328.15 K) is recorded as 34.21 ± 1.2 mN/m, the surface tension liquid-gas (333.15 K) was found to be 33.88 ± 1.2 mN/m and the surface tension liquid-gas (338.15 K) was 33.75 ± 1.2 mN/m. For the same molecule, the mass density was determined as 1141.3 ± 3.9 kg/m3 (293.15 K); 1140 ± 3.9 kg/m3 (298.15 K); 1132.1 ± 3.8 kg/m3 (303.15 K); 1129.7 ± 3.7 kg/m3 (308.15 K); 1125.1 ± 3.7 kg/m3 (313.15 K); 1120.4 ± 3.6 kg/m3 (318.15 K). Also, the mass density (323.15 K) is 1118 ± 3.5 kg/m3, the mass density (328.15 K) was found to be 1112.9 ± 3.5 kg/m3, the mass density (333.15 K) is recorded as 1111.1 ± 3.4 kg/m3 and the mass density (338.15 K) is 1108 ± 3 kg/m3.
